Results taken from PMC12473689, “Drug Metabolism and Pharmacokinetics of Oxazolo[4,5-c]quinoline Analogs as Novel Interleukin-33 Inhibitors” (Pharmaceutics, 2025).
Like-named read-outs stand apart in the source and are kept apart here.

Experiment: Pharmacokinetic study after single IV and PO dose
Assay type: in vivo
Conditions: male ICR mice; for bioavailability: oral, 10 mg/kg; for half-life: noncompartmental analysis
Procedure: All animal procedures were reviewed and approved by the Institutional Animal Care and Use Committee (IACUC) of Korea University (Approval No: KUIACUC-2020-0031) and conducted in compliance with the IACUC guidelines. […] In accordance with an approved protocol, mice were euthanized by CO2 asphyxiation at the end of the study. For intravenous (IV) administration, KB-1517 was dissolved in a vehicle of dimethylacetamide/Tween 80/water (5/5/90, v/v/v) at 1 mg/mL. KB-1518 (as TFA salt) was dissolved in DMSO/saline (10/90, v/v) at 1 mg/mL. Mice (n = 4 per group per compound) received a single IV dose of 5 mg/kg via the tail vein (dose volume: 5 mL/kg). For oral (PO) administration, the same formulations were used, and mice (n = 4 per group per compound) received a single dose of 10 mg/kg via oral gavage (dose volume: 10 mL/kg). For intraperitoneal (IP) administration, a suspension of KB-1517 or KB-1518 (0.4 mg/mL in PBS) was prepared by diluting a DMSO stock solution (13 mg/mL). Mice (n = 4 per compound) received a single IP injection of 0.2 mg per animal (dose volume: 500 µL). Serial blood samples (approximately 40 µL) were collected via the saphenous vein into Microvette® 100LH heparinized capillary tubes at selected time points. […] Plasma samples were stored in freezer until LC-MS/MS analysis. Protein precipitation was performed on 15 µL aliquots of plasma samples by adding three volumes of acetonitrile containing diclofenac as an analytical internal standard. The mixture was vortexed thoroughly and centrifuged at 3000× g for 30 min at 4 °C. A 50 µL aliquot of the resulting supernatant was transferred to a 96-well plate and mixed with 50 µL of water. The prepared solutions were analyzed using an Agilent 6460 QQQ LC-MS/MS system (Agilent Technologies Korea Ltd., Seoul, Republic of Korea). Quantitative analysis was performed using an Agilent 1290 Infinity Series HPLC system (Agilent Technologies Korea Ltd., Seoul, Republic of Korea) coupled to an Agilent 6460 QQQ mass spectrometer system (Agilent Technologies Korea Ltd., Seoul, Republic of Korea) with a dual AJS ESI ion source operating in positive ion mode. For chromatographic separation, an Agilent Eclipse Plus C18 column (2.1 × 100 mm, 3.5 µm) (Agilent Technologies Korea Ltd., Seoul, Republic of Korea) protected by a Phenomenex SecurityGuard C18 guard column was used. The mobile phase consisted of (A) 0.1% formic acid in water and (B) 0.1% formic acid in acetonitrile. […] The flow rate was 0.45 mL/min, the injection volume was 3 µL, and the column temperature was 40 °C. The ion source parameters for the mass spectrometer were set as follows: gas temperature 325 °C, gas flow 12 L/min, nebulizer pressure 35 psi, sheath gas temperature 350 °C, and sheath gas flow 10 L/min. Multiple Reaction Monitoring (MRM) transitions were used for quantification: KB-1517: m/z 402 → 72 (CE 10 V); KB-1518: m/z 402 → 72 (CE 5 V); Diclofenac (IS): m/z 296 → 215 (CE 30 V); […] Ranitidine: m/z 315 → 102 (CE 33 V); Itraconazole: m/z 705 → 395 (CE 40 V); […] Data acquisition and processing were performed using Agilent MassHunter Quantitative Analysis software (ver. B.05.00). Calibration curves were constructed using weighted linear regression. Noncompartmental analysis (NCA) was performed using PKSolver to determine pharmacokinetic parameters from the plasma concentration-time data. Parameters included: maximum plasma concentration (Cmax), time to reach Cmax (tmax), terminal elimination half-life (t1/2), area under the plasma concentration-time curve from time zero to the last measurable concentration (AUClast), area under the plasma concentration-time curve extrapolated to infinity (AUCinf), total body clearance (CL), and volume of distribution at steady state (Vss). […] Due to the anomalous profile of KB-1517, AUClast was used for its F calculation, and some parameters (t½, CL, Vss for IV; AUCinf for PO) could not be reliably determined (ND). […]

[1] = mouse, plasma, single IV dose 5 mg/kg, mean ± SD (n = 4)
[2] = mouse, plasma, single PO dose 10 mg/kg, mean ± SD (n = 4)

| F (apparent oral bioavailability) (PO 10 mg/kg vs IV 5 mg/kg, calculated using AUClast) | bioavailability (male, ICR, mouse, plasma, PO 10 mg/kg vs IV 5 mg/kg, calculated using AUClast, read-out: F (apparent oral bioavailability)) | AUC(0-t) [1] | AUC(0-t) [2] | Cmax [2] | Tmax [2] | F (oral bioavailability) (PO 10 mg/kg vs IV 5 mg/kg, calculated from AUCinf) | CL (single IV dose 5 mg/kg, mean ± SD (n = 4), 5 mg/kg) | clearance (male, ICR, mouse, plasma, iv, 5 mg/kg, single IV dose 5 mg/kg, mean ± SD (n = 4)) | Vd (male, ICR, mouse, plasma, iv, 5 mg/kg, single IV dose 5 mg/kg, mean ± SD (n = 4), read-out: Vss) | bioavailability (male, ICR, mouse, plasma, PO 10 mg/kg vs IV 5 mg/kg, calculated from AUCinf, read-out: F (oral bioavailability)) | AUC(0-inf) [1] | AUC(0-inf) [2] | half-life (mouse, single IV dose 5 mg/kg, plasma, mean ± SD (n = 4)) | half-life (mouse, single PO dose 10 mg/kg, plasma, mean ± SD (n = 4)) | Compound |
| --- | --- | --- | --- | --- | --- | --- | --- | --- | --- | --- | --- | --- | --- | --- | --- |
| 119.3 ± 20.1% | > 100% | 1830 ± 348 ng·h/mL | 4370 ± 738 ng·h/mL | 289 ± 34.1 ng/mL | 5.6 ± 3.5 h | – | – | – | – | – | – | – | – | – | CN(C)CCn1c(=O)c2nc(-c3ccc(C(F)(F)F)cc3)oc2c2ccccc21 [KB-1517, 5-(2-(dimethylamino)ethyl)-2-(4-(trifluoromethyl)phenyl)oxazolo[4,5-c]quinolin-4(5H)-one] |
| – | – | 3460 ± 474 ng·h/mL | 868 ± 267 ng·h/mL | 157 ± 104 ng/mL | 1.6 ± 0.8 h | 13.6 ± 3.4% | 25 ± 3.3 mL/min/kg | ~25 mL/min/kg | ~4.6 L/kg | ~14% | 3460 ± 476 ng·h/mL | 942 ± 234 ng·h/mL | 2.6 ± 0.3 h | 6.2 ± 1.9 h | CN(C)CCOc1nc2ccccc2c2oc(-c3ccc(C(F)(F)F)cc3)nc12 [KB-1518, N,N-dimethyl-2-((2-(4-(trifluoromethyl)phenyl)oxazolo[4,5-c]quinolin-4-yl)oxy)ethan-1-amine] |
